Experimental data as given in patent US10517867B2, “Posaconazole derivative, pharmaceutical composition and use thereof” (priority 2016, dated 2019).
≈ marks a conversion by molar mass, not a printed value. Like-named read-outs stand apart in the source and are kept apart here.

Tests used:
[1] = test system: Aspergillus Fumigutus (AF) strains; assay: Aspergillus fumigatus keratitis in rats, intravenous administration; conditions: 10 mg/kg tail vein once daily for 5 days; mean ± SD of 10 rats
[2] = Determination of solubility in deionized water (HPLC, external standard); conditions: for solubility at 30 min: 25 °C, water, thermodynamic from solid
[3] = test system: Aspergillus fumigatus AF293; assay: Lung Aspergillus fumigatus infection in immunosuppressed mice, intravenous administration; conditions: for responders at 20 mg/kg: Aspergillus fumigatus, AF293, in Mus musculus, iv; for lung fungal load: mouse lung tissue, seven days later, 20 mg/kg tail vein once daily for 5 days, mean ± SD
[4] = Solid stability test (stability chamber, HPLC total impurity); format: physicochemical; conditions: solid, packaged, 25° C.±2° C., relative humidity 60%±2%
[5] = test system: Candida albicans ATCC10231; assay: Candida albicans vaginitis in mice, intragastric administration; format: in vivo, KM mice; conditions: logarithm of the CFU values, mean ± SD of 20 mice, 20 mg/kg intragastric once a day
[6] = test system: Candida albicans ATCC10231; assay: Systemic fungal infection in mice, intravenous administration; format: in vivo, ICR mice
Procedure: ICR mice, weighing 18-22 g, male, provided by Hubei Experimental Animal Center.
Prior to the experiment, a small amount of Candida albicans was picked from an SDA (sacharomyces agar, the same below) medium kept at 4° C. with an inoculation loop and inoculated into 1 ml YPD (Yeast Extract Peptone Dextrose Medium) culture medium, cultured at 30° C. with 200 rpm shaking and activated for 16 hours, so that the fungus was in the late stage of exponential growth. Counted with a hemocytometer and the fungal solution concentration was adjusted to 1×10^3-5×10^3 CFU/ml with RPMI1640 medium (Roswell Park Memorial Institute 1640, the same below). Monoclonal Candida albicans on SDA plate was picked up, inoculated into 1 ml YPD (Yeast Extract Peptone Dextrose Medium, the same below) culture medium, cultured at 35° C., 200 rpm for 16 hours until late exponential growth phase. Candida albicans was inoculated into fresh medium for culturing for 6 hours at 1%, centrifuged at 1000×g for 5 minutes, washed with physiological saline three times until the supernatant was colorless, counted with a hemocytometer, and the cell concentration was adjusted to 5×10^6 cells/ml. A tail vein injection of 0.1 ml/10 g caused a systemic fungal infection in mice. […] A total of 7 days of observations were performed. All dead mice were burned with ethanol.

[7] = test system: Candida albicans ATCC10231; assay: Systemic fungal infection in mice, intragastric administration; format: in vivo, ICR mice; conditions: Candida albicans, ATCC10231, po
[8] = test system: Candida albicans ATCC10231; assay: Candida albicans vaginitis in mice, intravenous administration; conditions: logarithm of the CFU values, mean ± SD of 20 mice; for vaginal fungal load of mice, day 5: 20 mg/kg tail vein once a day for 5 days, day 5 after infection; for vaginal fungal load of mice, day 3: 20 mg/kg tail vein once a day, day 3 after infection
Procedure: KM mice, weighing 18-22 g, female, provided by Hubei Experimental Animal Center.
The standard strain of Candida albicans was purchased from the American Type Culture
Collection, strain number ATCC10231.
Prior to being infected with Candida albicans, animals in each group were given subcutaneous injections of 0.5 ml of estradiol benzoate (2 mg/ml) for 6 consecutive days to allow them to enter the estrus phase. Injections were continued once every 2 days until the completion of the experiment. After 6 days, 20 μl of Candida albicans solution in a concentration of 3.5×10^6 CFU/ml was injected vaginally into each mouse, causing a vaginal infection model. From the first day after infection, each group of animals was given 20 mg/kg of the corresponding drug (calculated as posaconazole) in the tail vein at an administration volume of 0.1 ml/10 g once a day for 5 consecutive days. The model group was given an equal volume of solvent (physiological saline). On the 3rd and 5th days after infection, the vagina of mice were wiped with sterile cotton swabs. The cotton swabs were soaked in 0.9 ml physiological saline. The fungal solutions were diluted to 10-fold increments to give a series of concentrations, and then 100 μl of each concentration of the bacteria solutions was taken and inoculated on Sabourand's dextrose agar solid medium containing 0.5% (W/V) chloramphenicol to observe the fungal load of Candida albicans on the vagina.

[9] = 24 h, read-out: survival rate of mice, day 1, 20 mg/kg tail vein once daily for 5 days, day 1
[10] = 48 h, read-out: survival rate of mice, day 2, 20 mg/kg tail vein once daily for 5 days, day 2
[11] = 72 h, read-out: survival rate of mice, day 3, 20 mg/kg tail vein once daily for 5 days, day 3
[12] = 96 h, read-out: survival rate of mice, day 4, 20 mg/kg tail vein once daily for 5 days, day 4
[13] = 120 h, read-out: survival rate of mice, day 5, 20 mg/kg tail vein once daily for 5 days, day 5
[14] = 144 h, read-out: survival rate of mice, day 6, 20 mg/kg tail vein once daily for 5 days, day 6
[15] = 168 h, read-out: survival rate of mice, day 7, 20 mg/kg tail vein once daily for 5 days, day 7
[16] = 24 h, read-out: survival rate of mice, day 1
[17] = 48 h, read-out: survival rate of mice, day 2
[18] = 72 h, read-out: survival rate of mice, day 3
[19] = 96 h, read-out: survival rate of mice, day 4
[20] = 120 h, read-out: survival rate of mice, day 5
[21] = 144 h, read-out: survival rate of mice, day 6
[22] = 168 h, read-out: survival rate of mice, day 7
[23] = 24 h, read-out: survival rate of mice, day 1, 20 mg/kg intragastric once daily for 5 days, day 1
[24] = 48 h, read-out: survival rate of mice, day 2, 20 mg/kg intragastric once daily for 5 days, day 2
[25] = 72 h, read-out: survival rate of mice, day 3, 20 mg/kg intragastric once daily for 5 days, day 3
[26] = 96 h, read-out: survival rate of mice, day 4, 20 mg/kg intragastric once daily for 5 days, day 4
[27] = 120 h, read-out: survival rate of mice, day 5, 20 mg/kg intragastric once daily for 5 days, day 5
[28] = 144 h, read-out: survival rate of mice, day 6, 20 mg/kg intragastric once daily for 5 days, day 6
[29] = 168 h, read-out: survival rate of mice, day 7, 20 mg/kg intragastric once daily for 5 days, day 7

Structure (SMILES) | Amount of active fungi in cornea at day 7 [1] | solubility at 30 min [2] | responders at 20 mg/kg [3, 9] | responders at 20 mg/kg [3, 10] | responders at 20 mg/kg [3, 11] | responders at 20 mg/kg [3, 12] | responders at 20 mg/kg [3, 13] | responders at 20 mg/kg [3, 14] | responders at 20 mg/kg [3, 15] | lung fungal load [3] | responders at 20 mg/kg [6, 16] | responders at 20 mg/kg [6, 17] | responders at 20 mg/kg [6, 18] | responders at 20 mg/kg [7, 23] | responders at 20 mg/kg [7, 24] | responders at 20 mg/kg [7, 25] | responders at 20 mg/kg [7, 26] | responders at 20 mg/kg [7, 27] | responders at 20 mg/kg [7, 28] | responders at 20 mg/kg [7, 29] | also measured
CCC([C@H](C)OC(=O)C(O)C(O)COP(=O)(O)O)n1ncn(-c2ccc(N3CCN(c4ccc(OC[C@@H]5CO[C@@](Cn6cncn6)(c6ccc(F)cc6F)C5)cc4)CC3)cc2)c1=O (stereo partly shown) [ST0001] | 3.73 ± 0.63 10^3 CFU/ml | 47.7 mg/mL (≈ 53.1 mM) | 100% | 100% | 90% | 90% | 80% | 70% | 70% | 2.28 ± 0.77 10^4 CFU/ml | – | – | – | – | – | – | – | – | – | – | –
CC[C@@H]([C@H](C)O)n1ncn(-c2ccc(N3CCN(c4ccc(OC[C@@H]5CO[C@@](Cn6c[n+](C(C)OC(=O)N(C)c7ncccc7COC(=O)[C@@H](N)CCCN)cn6)(c6ccc(F)cc6F)C5)cc4)CC3)cc2)c1=O (stereo partly shown) [ST0003] | 1.48 ± 0.38 10^3 CFU/ml | – | 100% | 100% | 100% | 100% | 100% | 90% | 90% | – | 100% | 100% | 100% | 100% | 100% | 100% | 90% | 80% | 80% | 80% | Total impurity increment in 30 days [4]: 0.68%; vaginal fungal load of mice, day 3 ([5]; 20 mg/kg): 4.23 ± 0.41; vaginal fungal load of mice, day 5 ([5]; 20 mg/kg): 4.05 ± 0.37; vaginal fungal load of mice, day 7 ([5]; 20 mg/kg): 3.28 ± 0.36; vaginal fungal load of mice, day 11 ([5]; 20 mg/kg): 2.47 ± 0.18; responders at 20 mg/kg [6, 19]: 100%; responders at 20 mg/kg [6, 20]: 100%; responders at 20 mg/kg [6, 21]: 100%; responders at 20 mg/kg [6, 22]: 90%; vaginal fungal load of mice, day 5 ([8]; 20 mg/kg): 3.85 ± 0.28; vaginal fungal load of mice, day 3 ([8]; 20 mg/kg): 4.11 ± 0.30; Solubility ([2]; 25±2° C., after 30 min): >50 mg/mL; lung fungal load ([3]; 20 mg/kg): 1.39 ± 0.32 10^4 CFU/ml
CC[C@@H]([C@H](C)O)n1ncn(-c2ccc(N3CCN(c4ccc(OC[C@@H]5CO[C@@](Cn6c[n+](C(C)OC(=O)N(C)c7ncccc7COC(=O)C[C@H](N)C(=O)O)cn6)(c6ccc(F)cc6F)C5)cc4)CC3)cc2)c1=O (stereo partly shown) [ST0004] | 5.58 ± 1.12 10^3 CFU/ml | > 50 mg/mL | 100% | 90% | 80% | 80% | 70% | 60% | 50% | 3.51 ± 1.38 10^4 CFU/ml | – | – | – | – | – | – | – | – | – | – | –
CC[C@@H]([C@H](C)O)n1ncn(-c2ccc(N3CCN(c4ccc(OC[C@@H]5CO[C@@](Cn6c[n+](C(C)OC(=O)N(C)c7ncccc7COC(=O)CCC(=O)O)cn6)(c6ccc(F)cc6F)C5)cc4)CC3)cc2)c1=O (stereo partly shown) [ST0005] | 5.90 ± 1.06 10^3 CFU/ml | > 50 mg/mL | 100% | 90% | 80% | 80% | 70% | 60% | 50% | 3.40 ± 1.26 10^4 CFU/ml | – | – | – | – | – | – | – | – | – | – | –
CC[C@@H]([C@H](C)O)n1ncn(-c2ccc(N3CCN(c4ccc(OC[C@@H]5CO[C@@](Cn6c[n+](C(C)OC(=O)N(C)c7ncccc7COC(=O)[C@@H](N)CCN)cn6)(c6ccc(F)cc6F)C5)cc4)CC3)cc2)c1=O (stereo partly shown) [ST0006] | 1.92 ± 0.41 10^3 CFU/ml | > 50 mg/mL | 100% | 100% | 100% | 100% | 90% | 90% | 80% | 1.73 ± 0.34 10^4 CFU/ml | – | – | – | 100% | 100% | 90% | 80% | 70% | 70% | 70% | vaginal fungal load of mice, day 3 [5]: 4.32 ± 0.29; vaginal fungal load of mice, day 5 [5]: 4.18 ± 0.20; vaginal fungal load of mice, day 7 [5]: 3.49 ± 0.54; vaginal fungal load of mice, day 11 [5]: 2.84 ± 0.37
CC[C@@H]([C@H](C)O)n1ncn(-c2ccc(N3CCN(c4ccc(OC[C@@H]5CO[C@@](Cn6c[n+](C(C)OC(=O)N(C)c7ncccc7COC(=O)[C@@H](N)CCCNC(N)=O)cn6)(c6ccc(F)cc6F)C5)cc4)CC3)cc2)c1=O (stereo partly shown) [ST0012] | 1.45 ± 0.37 10^3 CFU/ml | > 50 mg/mL | 100% | 100% | 100% | 100% | 100% | 90% | 90% | 1.42 ± 0.30 10^4 CFU/ml | 100% | 100% | 100% | 100% | 100% | 100% | 80% | 80% | 80% | 80% | vaginal fungal load of mice, day 3 [5]: 4.17 ± 0.43; vaginal fungal load of mice, day 5 [5]: 4.12 ± 0.35; vaginal fungal load of mice, day 7 [5]: 3.10 ± 0.34; vaginal fungal load of mice, day 11 [5]: 2.42 ± 0.19; responders at 20 mg/kg [6, 19]: 100%; responders at 20 mg/kg [6, 20]: 100%; responders at 20 mg/kg [6, 21]: 100%; responders at 20 mg/kg [6, 22]: 90%; vaginal fungal load of mice, day 5 [8]: 3.75 ± 0.26; vaginal fungal load of mice, day 3 [8]: 4.01 ± 0.28
